Experimental data reported in PubChem BioAssay AID256 (DTP/NCI, 2004).
Values joined by “and” are separate entries in the source; they are usually repeats but may differ in a detail not shown here. Identical values can stand only once. Inconclusive results and toxic doses are left out. The calls were made as follows: active = survival T/C of 150% or more; inactive = T/C below 125% in these data.

Test system: CD2F1 mice, L1210 leukemia ip, survival T/C
Test: NCI In Vivo Anticancer Drug Screen. Data for tumor model L1210 Leukemia (intraperitoneal) in CD2F1 (CDF1) mice
Settings: higher = longer survival
Procedure, shortened: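 Ratio T/C, where T is the treated-group value and C the vehicle-dosed control value, from mice implanted with a transplantable tumor.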

[1] = endpoint: mean survival time, dose: 100.0 mg/kg/injection, schedule: Q01DX009 (ip), vehicle: saline with Tween-80
[2] = endpoint: mean survival time, dose: 100.0 mg/kg/injection, schedule: Q04DX003 (ip), vehicle: saline with Tween-80
[3] = endpoint: mean survival time, dose: 200.0 mg/kg/injection, schedule: Q01DX009 (ip), vehicle: saline with Tween-80
[4] = endpoint: mean survival time, dose: 200.0 mg/kg/injection, schedule: Q04DX003 (ip), vehicle: saline with Tween-80
[5] = endpoint: mean survival time, dose: 400.0 mg/kg/injection, schedule: Q01DX009 (ip), vehicle: saline with Tween-80
[6] = endpoint: mean survival time, dose: 400.0 mg/kg/injection, schedule: Q04DX003 (ip), vehicle: saline with Tween-80
[7] = endpoint: mean survival time, dose: 80.0 mg/kg/injection, schedule: Q01DX001 (ip), vehicle: saline

Measured: T/C

COc1ccc(C(=O)c2cccc3c2-c2ccccc2C3(c2ccc(OC)c(C)c2)c2ccc(OC)c(C)c2)cc1C
inactive: endpoint: mean survival time, dose: 5.0 mg/kg/injection, schedule: Q01DX001 (ip), vehicle: other 96 % of control | endpoint: mean survival time, dose: 10.0 mg/kg/injection, schedule: Q01DX001 (ip), vehicle: other 88 % of control | endpoint: mean survival time, dose: 40.0 mg/kg/injection, schedule: Q01DX001 (ip), vehicle: other 86 % of control | endpoint: mean survival time, dose: 80.0 mg/kg/injection, schedule: Q01DX001 (ip), vehicle: other 91 % of control

CCCCC(CC)COc1ccc(N=C(N)N=C(N)N)cc1 (centres undefined)
inactive: endpoint: mean survival time, dose: 25.0 mg/kg/injection, schedule: Q04DX002 (ip), vehicle: saline with Tween-80 98 % of control | endpoint: mean survival time, dose: 50.0 mg/kg/injection, schedule: Q04DX002 (ip), vehicle: saline with Tween-80 102 % of control

C=CC1CC(=O)N1 (centres undefined)
inactive: endpoint: mean survival time, dose: 75.0 mg/kg/injection, schedule: Q01DX009 (ip), vehicle: saline 102 % of control | endpoint: mean survival time, dose: 75.0 mg/kg/injection, schedule: Q04DX003 (ip), vehicle: saline 97 % of control | endpoint: mean survival time, dose: 150.0 mg/kg/injection, schedule: Q01DX009 (ip), vehicle: saline 103 % of control | endpoint: mean survival time, dose: 150.0 mg/kg/injection, schedule: Q04DX003 (ip), vehicle: saline 101 % of control | endpoint: mean survival time, dose: 300.0 mg/kg/injection, schedule: Q01DX009 (ip), vehicle: saline 103 % of control | endpoint: mean survival time, dose: 300.0 mg/kg/injection, schedule: Q04DX003 (ip), vehicle: saline 95 % of control

Clc1nc(Oc2ccccc2)nc(-c2cn(-c3ccccc3)c3ccccc23)n1
inactive: endpoint: mean survival time, dose: 100.0 mg/kg/injection, schedule: Q01DX001 (ip), vehicle: saline with Tween-80 98 % of control | [1] 95 % of control | [2] 102 % of control | endpoint: mean survival time, dose: 200.0 mg/kg/injection, schedule: Q01DX001 (ip), vehicle: saline with Tween-80 102 % of control | [3] 101 % of control | [4] 98 % of control | endpoint: mean survival time, dose: 400.0 mg/kg/injection, schedule: Q01DX001 (ip), vehicle: saline with Tween-80 102 % of control | [5] 97 % of control | [6] 101 % of control

O=c1cccc(Cl)[nH]1
inactive: [1] 102 % of control | [2] 98 % of control | [3] 102 % of control | [4] 102 % of control | [5] 90 % of control | [6] 98 % of control

CCOC(=O)C1(C(=O)OCC)C(C)CC2Nc3ccccc3C(=O)N21 (centres undefined)
inactive: endpoint: mean survival time, dose: 100.0 mg/kg/injection, schedule: Q01DX001 (ip), vehicle: Klucel (hydroxypropylcellulose) (HPC) 100 % of control | endpoint: mean survival time, dose: 200.0 mg/kg/injection, schedule: Q01DX001 (ip), vehicle: Klucel (hydroxypropylcellulose) (HPC) 96 % of control | endpoint: mean survival time, dose: 400.0 mg/kg/injection, schedule: Q01DX001 (ip), vehicle: Klucel (hydroxypropylcellulose) (HPC) 92 % of control

CN(C)c1nc(N)c2nonc2n1
inactive: endpoint: mean survival time, dose: 12.5 mg/kg/injection, schedule: Q01DX005 (ip), vehicle: other 97 % of control | endpoint: mean survival time, dose: 25.0 mg/kg/injection, schedule: Q01DX005 (ip), vehicle: other 97 % of control | endpoint: mean survival time, dose: 50.0 mg/kg/injection, schedule: Q01DX005 (ip), vehicle: other 92 % of control | endpoint: mean survival time, dose: 100.0 mg/kg/injection, schedule: Q01DX005 (ip), vehicle: other 97 % of control | endpoint: mean survival time, dose: 200.0 mg/kg/injection, schedule: Q01DX005 (ip), vehicle: other 95 % of control

COc1cc2c3cc1Oc1c(OC)c(OC)cc4c1C(Cc1ccc(O)c(c1)Oc1ccc(cc1)CC3N(C)CC2)CN(C)C4 (centres undefined)
inactive: [2] 101 % of control | [4] 93 % of control

c1ccc([As]2[As](c3ccccc3)[As](c3ccccc3)[As]2c2ccccc2)cc1 (centres undefined)
inactive: endpoint: mean survival time, dose: 5.0 mg/kg/injection, schedule: Q01DX001 (ip), vehicle: saline 101 % of control | endpoint: mean survival time, dose: 10.0 mg/kg/injection, schedule: Q01DX001 (ip), vehicle: saline 108 % of control | endpoint: mean survival time, dose: 20.0 mg/kg/injection, schedule: Q01DX001 (ip), vehicle: saline 111 % of control | endpoint: mean survival time, dose: 40.0 mg/kg/injection, schedule: Q01DX001 (ip), vehicle: saline 113 % of control | [7] 119 % of control

Cc1ccc(/C=N/N2C(=O)CSC2=S)cc1
inactive: endpoint: mean survival time, dose: 75.0 mg/kg/injection, schedule: Q01DX001 (ip), vehicle: other 102 % of control | endpoint: mean survival time, dose: 150.0 mg/kg/injection, schedule: Q01DX001 (ip), vehicle: other 97 % of control

COc1cc(C)c(Cl)[n+]([O-])n1
inactive: endpoint: mean survival time, dose: 3.13 mg/kg/injection, schedule: Q04DX002 (ip), vehicle: saline with Tween-80 104 % of control | endpoint: mean survival time, dose: 6.25 mg/kg/injection, schedule: Q04DX002 (ip), vehicle: saline with Tween-80 104 % of control | endpoint: mean survival time, dose: 12.5 mg/kg/injection, schedule: Q04DX002 (ip), vehicle: saline with Tween-80 97 % of control and 104 % of control

NNc1ncnc2c1ccn2C1OC(CO)C(O)C1O (centres undefined)
inactive: endpoint: mean survival time, dose: 35.0 mg/kg/injection, schedule: Q01DX001 (ip), vehicle: saline 116 % of control | endpoint: mean survival time, dose: 53.0 mg/kg/injection, schedule: Q01DX001 (ip), vehicle: saline 110 % of control | [7] 112 % of control | endpoint: mean survival time, dose: 120.0 mg/kg/injection, schedule: Q01DX001 (ip), vehicle: saline 116 % of control

O=C1NCCN1c1ccc([N+](=O)[O-])cc1
inactive: endpoint: mean survival time, dose: 12.5 mg/kg/injection, schedule: Q01DX009 (ip), vehicle: other 89 % of control | endpoint: mean survival time, dose: 25.0 mg/kg/injection, schedule: Q01DX009 (ip), vehicle: other 103 % of control | endpoint: mean survival time, dose: 50.0 mg/kg/injection, schedule: Q01DX009 (ip), vehicle: other 94 % of control | endpoint: mean survival time, dose: 100.0 mg/kg/injection, schedule: Q01DX009 (ip), vehicle: other 96 % of control | endpoint: mean survival time, dose: 200.0 mg/kg/injection, schedule: Q01DX009 (ip), vehicle: other 96 % of control

CCC(CCC(C)C1CCC2C3CC=C4CC(OC(=O)CCC(=O)O)CCC4(C)C3CCC12C)C(C)C (centres undefined)
inactive: [2] 90 % of control | [4] 90 % of control | [6] 93 % of control

CCCC(C)c1ccccc1O (centres undefined)
inactive: endpoint: mean survival time, dose: 25.0 mg/kg/injection, schedule: Q01DX009 (ip), vehicle: saline with Tween-80 102 % of control | endpoint: mean survival time, dose: 25.0 mg/kg/injection, schedule: Q04DX003 (ip), vehicle: saline 97 % of control | endpoint: mean survival time, dose: 50.0 mg/kg/injection, schedule: Q01DX009 (ip), vehicle: saline with Tween-80 98 % of control | endpoint: mean survival time, dose: 50.0 mg/kg/injection, schedule: Q04DX003 (ip), vehicle: saline 105 % of control | [1] 92 % of control | endpoint: mean survival time, dose: 100.0 mg/kg/injection, schedule: Q04DX003 (ip), vehicle: saline 94 % of control

COC(=O)[C@@]12OC[C@]34[C@H]([C@@H](O)[C@@H]1O)[C@@]1(C)CC(=O)C(OC(=O)CC(=O)OC5=C(C)[C@@H]6C[C@H]7OC(=O)[C@H](OC(=O)/C=C(\C)C(C)C)[C@H]8[C@]9(C(=O)OC)OC[C@]78[C@H]([C@@H](O)[C@@H]9O)[C@@]6(C)CC5=O)=C(C)[C@@H]1C[C@H]3OC(=O)[C@H](OC(=O)/C=C(\C)C(C)C)[C@@H]24
inactive: endpoint: median survival time, dose: 0.37 mg/kg/injection, schedule: Q01DX009 (ip), vehicle: saline + Tween-80 + alcohol 113 % of control | endpoint: median survival time, dose: 0.38 mg/kg/injection, schedule: Q01DX009 (ip), vehicle: saline + Tween-80 + alcohol 112 % of control | endpoint: median survival time, dose: 0.75 mg/kg/injection, schedule: Q01DX009 (ip), vehicle: saline + Tween-80 + alcohol 115 % of control and 121 % of control | endpoint: median survival time, dose: 1.5 mg/kg/injection, schedule: Q01DX009 (ip), vehicle: saline + Tween-80 + alcohol 121 % of control and 112 % of control
